Results on 29 compounds are retold here after patent US20090018134A1, “Compounds - 945” (AstraZeneca AB, priority 2007, published 2009).

Molecules are shown by their SMILES.

The target in one experiment is T1, mTOR (Homo sapiens, UniProt P42345).
T1 construct: FLAG; made in house
T1 sequence (P42345 1362-2549): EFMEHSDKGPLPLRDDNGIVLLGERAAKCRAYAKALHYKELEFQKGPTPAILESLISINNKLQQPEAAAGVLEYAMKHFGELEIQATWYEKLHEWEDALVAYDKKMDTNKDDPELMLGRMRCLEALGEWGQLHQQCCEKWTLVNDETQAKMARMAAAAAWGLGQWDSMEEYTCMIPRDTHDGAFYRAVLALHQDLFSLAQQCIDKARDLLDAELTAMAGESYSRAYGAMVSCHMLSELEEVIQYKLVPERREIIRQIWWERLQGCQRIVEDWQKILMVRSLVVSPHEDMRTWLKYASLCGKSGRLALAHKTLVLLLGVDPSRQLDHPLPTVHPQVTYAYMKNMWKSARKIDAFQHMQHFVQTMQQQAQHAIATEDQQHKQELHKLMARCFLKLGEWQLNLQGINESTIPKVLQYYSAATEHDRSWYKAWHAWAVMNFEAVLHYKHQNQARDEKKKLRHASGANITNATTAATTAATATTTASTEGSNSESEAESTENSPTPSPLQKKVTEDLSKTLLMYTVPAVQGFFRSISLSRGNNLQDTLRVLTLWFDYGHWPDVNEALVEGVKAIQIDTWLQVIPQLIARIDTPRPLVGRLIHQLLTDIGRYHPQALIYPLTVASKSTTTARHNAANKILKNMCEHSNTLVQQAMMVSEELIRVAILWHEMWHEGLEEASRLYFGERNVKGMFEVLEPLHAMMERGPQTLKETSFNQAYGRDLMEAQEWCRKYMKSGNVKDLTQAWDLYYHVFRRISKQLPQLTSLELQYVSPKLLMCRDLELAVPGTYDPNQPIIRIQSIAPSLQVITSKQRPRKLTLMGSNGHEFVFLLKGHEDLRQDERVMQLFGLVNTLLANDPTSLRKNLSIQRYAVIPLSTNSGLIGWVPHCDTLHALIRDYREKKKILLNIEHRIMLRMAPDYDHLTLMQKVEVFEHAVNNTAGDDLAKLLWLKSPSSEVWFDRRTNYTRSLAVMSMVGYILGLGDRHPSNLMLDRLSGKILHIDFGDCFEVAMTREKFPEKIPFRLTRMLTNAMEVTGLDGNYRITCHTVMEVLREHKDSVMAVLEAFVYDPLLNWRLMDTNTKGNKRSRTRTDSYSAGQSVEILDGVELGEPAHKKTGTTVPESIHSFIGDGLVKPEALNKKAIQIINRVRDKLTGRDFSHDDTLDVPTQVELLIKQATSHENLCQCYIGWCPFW
Nature of the experiment: In Vitro mTOR Kinase Assay (Echo), Test (a)(ii). Format: biochemical. Conditions: read-out: mTOR Kinase Assay (Echo). The essentials:
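FLAG-tagged truncated mTOR (residues 1362-2549), expressed in HEK293 and purified via the FLAG tag, phosphorylated a biotinylated peptide over 2 hours at room temperature. EDTA stopped the reaction. Phospho-T389 was detected overnight by AlphaScreen using the p70 S6K T389 antibody with Protein A/streptavidin beads; IC50 reported.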
As for `C[C@H]1COCCN1c1cc(C2(S(=O)(=O)c3ccncc3)CC2)nc(-c2ccc(NC(=O)NCCCO)cc2)n1` [Example 6k], the IC50 is 1.86 nM. As to `CCS(=O)(=O)C1(c2cc(N3CCOC[C@@H]3C)nc(-c3ccc(NC(=O)NC4CCC4)cc3)n2)CC1` [Example 11d, 3-cyclobutyl-1-[4-[4-(1-ethylsulfonylcyclopropyl)-6-[(3S)-3-methylmorpholin-4-yl]pyrimidin-2-yl]phenyl]urea], the IC50 worked out at 6.42 nM. Take `C[C@H]1COCCN1c1cc(C2(S(=O)(=O)c3ccccc3C(F)(F)F)CC2)nc(-c2ccc(NC(=O)Nc3ccccn3)cc2)n1` [Example 10b, 1-[4-[4-[(3S)-3-methylmorpholin-4-yl]-6-[1-[2-(trifluoromethyl)phenyl]sulfonylcyclopropyl]pyrimidin-2-yl]phenyl]-3-pyridin-2-yl-urea]: the IC50 is 26.6 nM.

With `CS(=O)(=O)C1(c2cc(N3CCOCC3)nc(-c3ccc(NC(=O)NCCO)cc3)n2)CCCC1` [Example 12l, 3-(2-hydroxyethyl)-1-[4-[4-(1-methylsulfonylcyclopentyl)-6-morpholin-4-ylpyrimidin-2-yl]phenyl]urea], the IC50 is 1.38 nM.

On to `CC(C)(CO)NC(=O)Nc1ccc(-c2nc(N3CCOCC3)cc(C3(S(C)(=O)=O)CC3)n2)cc1` [Example 12e, 3-(1-hydroxy-2-methylpropan-2-yl)-1-[4-[4-(1-methylsulfonylcyclopropyl)-6-morpholin-4-ylpyrimidin-2-yl]phenyl]urea], for which the IC50 stood at 4.59 nM. On the same count and under the same terms, next, `C[C@H]1COCCN1c1cc(C2(S(C)(=O)=O)CCCC2)nc(-c2ccc(NC(=O)Nc3ccccn3)cc2)n1` [Example 4l, 1-[4-[4-[(3S)-3-methylmorpholin-4-yl]-6-(1-methylsulfonylcyclopentyl)pyrimidin-2-yl]phenyl]-3-pyridin-2-yl-urea]: 3.69 nM.

Still in this experiment, the particulars now being: table of enzyme assay Test (a)(ii); read-out: Test (a)(ii) IC50.
As for `C[C@H]1COCCN1c1cc(C2(S(=O)(=O)CCCO)CCOCC2)nc(-c2ccc(NC(=O)NC3CC3)cc2)n1` [Example 36cc, 3-cyclopropyl-1-[4-[4-[4-(3-hydroxypropylsulfonyl)oxan-4-yl]-6-[(3S)-3-methylmorpholin-4-yl]pyrimidin-2-yl]phenyl]urea], the IC50 turned out to be 129 nM. For the compound `C[C@H]1COCCN1c1cc(C2(S(=O)(=O)c3ccccc3)CCCC2)nc(-c2ccc(NC(=O)NCCCO)cc2)n1` [Example 36by, 1-[4-[4-[1-(benzenesulfonyl)cyclopentyl]-6-[(3S)-3-methylmorpholin-4-yl]pyrimidin-2-yl]phenyl]-3-(3-hydroxypropyl)urea], the IC50 is 12 nM. With `C[C@H]1COCCN1c1cc(C2(S(C)(=O)=O)CC2)nc(-c2ccc(NC(=S)Nc3cnn(C)c3)cc2)n1` [Example 37o, 1-[4-[4-[(3S)-3-methylmorpholin-4-yl]-6-(1-methylsulfonylcyclopropyl)pyri-midin-2-yl]phenyl]-3-(1-methylpyrazol-4-yl)thiourea], the IC50 amounted to 33 nM.

On to `C[C@H]1COCCN1c1cc(C2(S(=O)(=O)c3ccccc3)CC2)nc(-c2ccc(NC(=O)NC3(CO)CC3)cc2)n1` [Example 36bo, 1-[4-[4-[1-(benzenesulfonyl)cyclopropyl]-6-[(3S)-3-methylmorpholin-4-yl]pyrimidin-2-yl]phenyl]-3-[1-(hydroxymethyl)cyclopropyl]urea], for which the IC50 came to 17.6 nM. Take `C[C@H]1COCCN1c1cc(C2(S(=O)(=O)c3ccc(F)c(Cl)c3)CC2)nc(-c2ccc(NC(=O)NC3CC3)cc2)n1` [Example 95b, 1-[4-[4-[1-(3-chloro-4-fluorophenyl)sulfonyl-cyclopropyl]-6-[(3S)-3-methylmorpholin-4-yl]pyrimidin-2-yl]phenyl]-3-cyclopropylurea]: the IC50 is 19 nM.

For `C[C@H]1COCCN1c1cc(C2(S(=O)(=O)CCCO)CC2)nc(-c2ccc(NC(=O)Nc3ncns3)cc2)n1` [Example 36b, 1-[4-[4-[1-(3-hydroxypropylsulfonyl)cyclopro-pyl]-6-[(3S)-3-methylmorpholin-4-yl]pyrimidin-2-yl]phenyl]-3-(1,2,4-thiadiazol-5-yl)urea], the IC50 turned out to be 1.79 nM. Consider `C[C@H]1COCCN1c1cc(C2(S(=O)(=O)CCCO)CC2)nc(-c2ccc(NC(=S)NCC(F)F)cc2)n1` [Example 99j, 3-(2,2-difluoroethyl)-1-[4-[4-[1-(3-hydroxypropylsulfonyl)cyclopropyl]-6-[(3S)-3-methylmorpholin-4-yl]pyrimidin-2-yl]phenyl]thiourea], for which the IC50 came to 12.4 nM. As for `CNC(=O)Nc1ccc(-c2nc(N3CCOC[C@@H]3C)cc(C3(S(=O)(=O)c4ncc[nH]4)CC3)n2)cc1` [Example 40], the IC50 worked out at 4.36 nM.

Turning to `C[C@H]1COCCN1c1cc(C2(S(=O)(=O)c3ccccn3)CCCC2)nc(-c2ccc(NC(=O)NCCC#N)cc2)n1` [Example 36ad, 3-(2-cyanoethyl)-1-[4-[4-[(3S)-3-methylmorpholin-4-yl]-6-(1-pyridin-2-ylsulfonylcyclopentyl)pyrimidin-2-yl]phenyl]urea], the IC50 came out at 32.3 nM. The same measure, in the same setting: the same measure for `CCNC(=O)Nc1ccc(-c2nc(N3CCOC[C@@H]3C)cc(C3(S(=O)(=O)C4CCOCC4)CC3)n2)cc1` [Example 94b, 1-ethyl-3-[4-[4-[(3S)-3-methylmorpholin-4-yl]-6-[1-(oxan-4-ylsulfonyl)cyclopropyl]pyrimidin-2-yl]phenyl]urea]: 12.2 nM; for `C[C@H]1COCCN1c1cc(C2(S(=O)(=O)CCCO)CC2)nc(-c2ccc(NC(=O)N3CCC(O)C3)cc2)n1` (stereo partly drawn) [Example 36cp, 3-hydroxy-N-[4-[4-[1-(3-hydroxypropylsulfonyl)cyclopropyl]-6-[(3S)-3-methylmorpholin-4-yl]pyrimidin-2-yl]phenyl]pyrrolidine-1-carboxamide]: 1260 nM; for `C[C@H]1COCCN1c1cc(C2(S(=O)(=O)C3CCCCC3)CC2)nc(-c2ccc(NC(=O)NCCN(C)C)cc2)n1` [Example 26c, 1-[4-[4-(1-cyclohexylsulfonylcyclopropyl)-6-[(3S)-3-methylmorpholin-4-yl]pyrimidin-2-yl]phenyl]-3-(2-dimethylaminoethyl)urea]: 119 nM. On the same count and under the same terms, the same measure for `C[C@H]1COCCN1c1cc(C2(S(=O)(=O)CCCO)CCCC2)nc(-c2ccc(NC(=O)NCCO)cc2)n1` [Example 43g, 3-(2-hydroxyethyl)-1-[4-[4-[1-(3-hydroxypropyl-sulfonyl)cyclopen-tyl]-6-[(3S)-3-methylmorpholin-4-yl]pyrimidin-2-yl]phenyl]urea]: 29 nM. On to `CC[C@H]1COCCN1c1cc(C2(S(C)(=O)=O)CC2)nc(-c2ccc(NC(=O)NCCO)cc2)n1` [Example 84b, 1-[4-[4-[(3S)-3-ethylmorpholin-4-yl]-6-(1-methylsulfonylcyclopropyl)pyrimidin-2-yl]phenyl]-3-(2-hydroxyethyl)urea], for which the IC50 stood at 3.85 nM.

On to `C[C@H]1COCCN1c1cc(C2(S(=O)(=O)C3CC3)CCOCC2)nc(-c2ccc(NC(=O)NC3CC3)cc2)n1` [Example 23e, 3-cyclopropyl-1-[4-[4-(4-cyclopropylsulfonyloxan-4-yl)-6-[(3S)-3-methylmorpholin-4-yl]pyrimidin-2-yl]phenyl]urea], for which the IC50 is 8.76 nM. Take `CNC(=O)Nc1ccc(-c2nc(N3CCOCC3)cc(C3(C(=O)N(C)C)CC3)n2)cc1` [Example 32, N,N-Dimethyl-1-[2-[4-(methylcarbamoylamino)phenyl]-6-morpholin-4-ylpyrimidin-4-yl]cyclopropane-1-carboxamide]: the IC50 was found to be 3.15 nM. On the same count and under the same terms, next, `Cc1cc(F)ccc1S(=O)(=O)C1(c2cc(N3CCOC[C@@H]3C)nc(-c3ccc(NC(=O)Nc4cnn(C)c4)cc3)n2)CC1` [Example 82f, 1-[4-[4-[1-(4-fluoro-2-methylphenyl)sulfonylcyclopropyl]-6-[(3S)-3-methylmorpholin-4-yl]pyrimidin-2-yl]phenyl]-3-(1-methylpyrazol-4-yl)urea]: 27.3 nM; `CNC(=O)Nc1ccc(-c2nc(N3CCOC[C@@H]3C)cc(C3(S(=O)(=O)c4nc(C)cs4)CC3)n2)cc1` [Example 25i, 3-methyl-1-[4-[4-[(3S)-3-methylmorpholin-4-yl]-6-[1-[(4-methyl-1,3-thiazol-2-yl)sulfonyl]cyclopropyl]pyrimidin-2-yl]phenyl]urea]: 1 nM.

Regarding `CNC(=O)Nc1ccc(-c2nc(N3CCOC[C@@H]3C)cc(C3(S(=O)(=O)c4nc(C)c(C)s4)CC3)n2)cc1` [Example 80d, 1-[4-[4-[1-[(4,5-dimethyl-1,3-thiazol-2-yl)sulfonyl]cyclopropyl]-6-[(3S)-3-methylmorpholin-4-yl]pyrimidin-2-yl]phenyl]-3-methylurea], the IC50 came to 9.51 nM. Regarding `C[C@H]1COCCN1c1cc(C2(S(=O)(=O)CCCO)CCC2)nc(-c2ccc(NC(=O)NCCCO)cc2)n1` [Example 43l, 3-(3-hydroxypropyl)-1-[4-[4-[1-(3-hydroxypropylsulfonyl)cyclobu-tyl]-6-[(3S)-3-methylmorpholin-4-yl]pyrimidin-2-yl]phenyl]urea], the IC50 was determined as 23.6 nM. On the same count and under the same terms, the same measure for `C[C@H]1COCCN1C(=O)C1(c2cc(N3CCOCC3)nc(-c3ccc(NC(=O)NC4CC4)cc3)n2)CC1` [Example 33a, 3-cyclopropyl-1-[4-[4-[1-[(3S)-3-methylmorpholine-4-carbonyl]cyclopropyl]-6-morpholin-4-ylpyrimidin-2-yl]phenyl]urea]: 58.4 nM; for `C[C@H]1COCCN1c1cc(C2(S(=O)(=O)c3ccc(F)c(F)c3)CC2)nc(-c2ccc(NC(=O)NCC(F)F)cc2)n1` [Example 64m, 3-(2,2-difluoroethyl)-1-[4-[4-[1-(3,4-difluorophenyl)sulfonylcyclo-propyl]-6-[(3S)-3-methylmorpholin-4-yl]pyrimidin-2-yl]phenyl]urea]: 40.8 nM; for `C[C@H]1COCCN1c1cc(C2(S(=O)(=O)c3ccccc3)CCOCC2)nc(-c2ccc(NC(=O)NCCO)cc2)n1` [Example 36db, 1-[4-[4-[4-(benzenesulfonyl)oxan-4-yl]-6-[(3S)-3-methylmorpholin-4-yl]pyrimidin-2-yl]phenyl]-3-(2-hydroxyethyl)urea]: 20.9 nM.
